From ChEMBL document CHEMBL1145380, “Optimization of 1,3,4-benzotriazepine-based CCK(2) antagonists to obtain potent, orally active inhibitors of gastrin-mediated gastric acid secretion” (J Med Chem, 2007)
pKi: −log10 of the molar value.

What was measured:
[1] = target: T1, Gastrin/cholecystokinin type B receptor (Homo sapiens, UniProt P32239); experiment: Displacement of [125I]BH-CCK-8S from human recombinant CCK2 receptor expressed in NIH3T3 cells
T1 sequence (P32239 whole entry): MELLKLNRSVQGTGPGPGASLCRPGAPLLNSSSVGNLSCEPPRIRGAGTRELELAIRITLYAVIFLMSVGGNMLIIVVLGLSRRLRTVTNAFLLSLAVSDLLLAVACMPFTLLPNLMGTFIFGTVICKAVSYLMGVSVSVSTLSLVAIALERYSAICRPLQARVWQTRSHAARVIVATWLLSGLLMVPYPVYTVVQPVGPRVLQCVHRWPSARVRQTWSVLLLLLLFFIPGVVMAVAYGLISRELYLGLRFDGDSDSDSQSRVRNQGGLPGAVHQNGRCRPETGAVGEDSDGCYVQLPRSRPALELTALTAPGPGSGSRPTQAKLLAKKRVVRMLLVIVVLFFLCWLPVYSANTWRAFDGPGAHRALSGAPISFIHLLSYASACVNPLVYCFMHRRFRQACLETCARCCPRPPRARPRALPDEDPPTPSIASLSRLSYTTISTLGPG

[2] = target: T2, Cholecystokinin receptor type A (Homo sapiens, UniProt P32238); experiment: Displacement of [3H]L-364718 from human recombinant CCK1 receptor expressed in PC3 cells; format: cell-based, PC-3
T2 sequence (P32238 whole entry): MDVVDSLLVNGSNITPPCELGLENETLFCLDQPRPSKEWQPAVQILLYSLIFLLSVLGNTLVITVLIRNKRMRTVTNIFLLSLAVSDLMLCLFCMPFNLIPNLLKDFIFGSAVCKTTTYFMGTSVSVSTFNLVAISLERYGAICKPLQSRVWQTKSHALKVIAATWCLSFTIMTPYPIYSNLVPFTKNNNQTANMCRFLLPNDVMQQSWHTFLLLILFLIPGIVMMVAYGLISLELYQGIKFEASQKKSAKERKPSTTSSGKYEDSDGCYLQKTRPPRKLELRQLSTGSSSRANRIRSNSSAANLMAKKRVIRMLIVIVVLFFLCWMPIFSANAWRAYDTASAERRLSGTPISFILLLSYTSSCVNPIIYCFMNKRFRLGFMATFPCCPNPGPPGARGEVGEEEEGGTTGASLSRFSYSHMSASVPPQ

[3] = target: T2, Cholecystokinin receptor type A; experiment: Displacement of [3H]L-364718 from human recombinant CCK1 receptor expressed in CHOK1 cells; format: cell-based, CHO-K1
[4] = target: T3, Gastrin/cholecystokinin type B receptor (Canis lupus familiaris, UniProt P30552); experiment: Displacement of [125I]BH-[…] from CCK2 receptor in canine gastric mucosa; format: tissue-based
T3 sequence (P30552 whole entry): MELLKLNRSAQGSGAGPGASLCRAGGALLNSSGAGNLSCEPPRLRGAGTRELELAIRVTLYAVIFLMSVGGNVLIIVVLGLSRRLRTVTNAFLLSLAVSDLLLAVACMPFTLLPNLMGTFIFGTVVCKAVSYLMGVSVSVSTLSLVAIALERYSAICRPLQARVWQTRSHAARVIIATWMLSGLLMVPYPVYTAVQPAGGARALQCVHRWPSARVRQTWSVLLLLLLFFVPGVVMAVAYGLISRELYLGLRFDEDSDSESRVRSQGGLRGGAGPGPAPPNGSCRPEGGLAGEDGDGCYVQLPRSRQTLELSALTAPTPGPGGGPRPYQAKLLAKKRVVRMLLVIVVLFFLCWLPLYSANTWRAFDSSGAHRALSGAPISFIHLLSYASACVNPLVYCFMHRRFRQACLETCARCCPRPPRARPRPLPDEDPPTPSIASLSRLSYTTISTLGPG

[5] = target: T4, Gastrin/cholecystokinin type B receptor (Canis lupus familiaris) (UniProt P30552); experiment: Inhibition of pentagastrin-stimulated gastric acid secretion in conscious gastric fistula dog at 0.05 mg/kg, iv; format: functional, organism-based; set-up: dose 0.05 mg/kg; conditions: Stomach
T4 sequence (whole entry): T3 sequence (P30552 whole entry)

[6] = target: T4, Gastrin/cholecystokinin type B receptor (Canis lupus familiaris); experiment: Inhibition of pentagastrin-stimulated gastric acid secretion in conscious gastric fistula dog at 1 mg/kg, iv; format: functional, organism-based; set-up: dose 1 mg/kg; conditions: Stomach
[7] = target: T5, Gastrin/cholecystokinin type B receptor (Rattus norvegicus, UniProt P30553); experiment: Antagonist activity at CCK2 receptor in perfused rat stomach assessed as inhibition of pentagastrin-stimulated gastric acid secretion; format: functional, tissue-based; conditions: read-out: pA2 (converted)
T5 sequence (P30553 whole entry): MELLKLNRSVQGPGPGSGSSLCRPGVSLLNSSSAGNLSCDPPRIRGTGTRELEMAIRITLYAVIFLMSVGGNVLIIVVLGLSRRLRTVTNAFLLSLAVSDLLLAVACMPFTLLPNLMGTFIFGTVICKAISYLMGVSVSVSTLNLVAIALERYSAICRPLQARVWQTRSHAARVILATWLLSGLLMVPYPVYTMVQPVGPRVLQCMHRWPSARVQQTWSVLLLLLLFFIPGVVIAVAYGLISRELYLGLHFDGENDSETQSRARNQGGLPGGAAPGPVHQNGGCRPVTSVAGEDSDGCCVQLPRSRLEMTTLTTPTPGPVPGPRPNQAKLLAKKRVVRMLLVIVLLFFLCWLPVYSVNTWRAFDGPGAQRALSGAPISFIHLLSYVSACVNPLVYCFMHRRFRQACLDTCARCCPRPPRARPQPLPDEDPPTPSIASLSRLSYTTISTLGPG

Compound	pKi [1]	pKi [2]	pKi [3]	further results
O=C(CN1N=C(C2CCCCC2)c2ccccc2N(CC(=O)C23CC4CC(CC(C4)C2)C3)C1=O)Nc1cccc(C(=O)O)c1	8.25	5.72		
CC(C)(C)C(=O)CN1C(=O)N(CC(=O)Nc2cccc(-c3cccn3CC(=O)O)c2)N=C(C2CCCCC2)c2ccccc21	9.04			
O=C(O)CCc1cccc(NC(=O)CN2N=C(C3CCCCC3)c3ccccc3N(CC(=O)C3CCCC3)C2=O)c1	9.47		5.60	pKi [4]: 8.37
CC(C)(C)C(=O)CN1C(=O)N(CC(=O)Nc2cccc(C(=O)O)c2)N=C(C2CCCC2)c2ccccc21	7.62	< 5.00		
O=C(O)c1cccc(NC(=O)c2nc(C3CCCCC3)[nH]c2COC23CC4CC(CC(C4)C2)C3)c1	7.71	< 5.00		inhibition [5]: 97%; inhibition [6]: 66%
CN1C(=O)N(CC(=O)Nc2cccc(C(=O)O)c2)N=C(C2CCCCC2)c2ccccc21	5.92	< 5.00		
CC(C)(C)C(=O)CN1C(=O)N(CC(=O)Nc2ccc3c(cnn3CC(=O)O)c2)N=C(C2CCCCC2)c2ccccc21	8.03		5.09	
O=C(O)CSc1cccc(NC(=O)CN2N=C(C3CCCCC3)c3ccccc3N(CC(=O)C3CCCC3)C2=O)c1			5.68	pKi [4]: 8.32
CC(C)(C)C(=O)CN1C(=O)N(CC(=O)Nc2ccc3ncn(CC(=O)O)c3c2)N=C(C2CCCCC2)c2ccccc21	7.77		< 5.00	
CC(C)(C)C(=O)CN1C(=O)N(CC(=O)Nc2cccc3c2cnn3CC(=O)O)N=C(C2CCCCC2)c2ccccc21	8.56		5.16	
O=C(CN1N=C(C2CCCCC2)c2ccccc2N(CC(=O)C2CCCCC2)C1=O)Nc1cccc(C(=O)O)c1	9.10		5.10	
O=C(CN1N=C(C2CCCCC2)c2ccccc2N(CC(=O)N2CCCC2)C1=O)Nc1cccc(C(=O)O)c1	7.79	< 5.00		
CC(C)(C)C(=O)CN1C(=O)N(CC(=O)Nc2cccc(CCC(=O)O)c2)N=C(C2CCCCC2)c2ccccc21	8.73		< 5.00	
CC(C)(C)C(=O)CN1C(=O)N(CC(=O)Nc2cccc(-c3csc(C(=O)O)n3)c2)N=C(C2CCCCC2)c2ccccc21	9.18		< 5.00	
Cc1ccccc1C(=O)CN1C(=O)N(CC(=O)Nc2cccc(C(=O)O)c2)N=C(C2CCCCC2)c2ccccc21	8.12	< 5.00		pKi [4]: 7.58
CC(C)CCN1C(=O)N(CC(=O)Nc2cccc(C(=O)O)c2)N=C(C2CCCCC2)c2ccccc21	7.69	< 5.00		
CC(C)(C)C(=O)CN1C(=O)N(CC(=O)Nc2cccc(C(=O)O)c2)N=C(C2CCCCC2)c2ccccc21		< 5.00		
CCOCCN1C(=O)N(CC(=O)Nc2cccc(C(=O)O)c2)N=C(C2CCCCC2)c2ccccc21	6.31			
CC(C)(C)C(=O)CN1C(=O)N(CC(=O)Nc2cccc(C(=O)O)c2)N=C(C23CC4CC(CC(C4)C2)C3)c2ccccc21	7.62	6.43		
CC(C)(C)C(=O)CN1C(=O)N(CC(=O)Nc2cccc(SCc3nn[nH]n3)c2)N=C(C2CCCCC2)c2ccccc21	9.15		6.41	
CNc1cccc(NC(=O)N[C@@H]2N=C(c3ccccn3)c3ccccc3N(CC(=O)C(C)(C)C)C2=O)c1 [NETAZEPIDE]			7.54	inhibition [5]: 97%; inhibition [6]: 66%

Compound	pKi [1]	pKi [2]	pKi [3]	further results
CC(=O)CN1C(=O)N(CC(=O)Nc2cccc(C(=O)O)c2)N=C(C2CCCCC2)c2ccccc21	6.48	< 5.00		
CC(C)(C)C(=O)CN1C(=O)N(CC(=O)Nc2cccc3c2ccn3CC(=O)O)N=C(C2CCCCC2)c2ccccc21	8.22		< 5.00	
CC(C)(C)C(=O)CN1C(=O)N(CC(=O)Nc2cccc(-c3nc(C(=O)O)co3)c2)N=C(C2CCCCC2)c2ccccc21	9.44		6.18	
CC(C)(C)C(=O)CN1C(=O)N(CC(=O)Nc2cccc(OCC(=O)O)c2)N=C(C2CCCCC2)c2ccccc21	8.26	5.39		
CN(c1cccc(NC(=O)CN2N=C(C3CCCCC3)c3ccccc3N(CC(=O)C(C)(C)C)C2=O)c1)c1nn[nH]n1	8.71	5.19		pKi [4]: 8.33; Kb [7]: 24 nM
O=C(O)Cc1cccc(NC(=O)CN2N=C(C3CCCCC3)c3ccccc3N(CC(=O)C3CCCC3)C2=O)c1	9.55		< 5.00	pKi [4]: 8.20
CC(C)(C)C(=O)CN1C(=O)N(CC(=O)Nc2cccc(NCC(=O)O)c2)N=C(C2CCCCC2)c2ccccc21	8.21	5.07		
CC(C)(C)C(=O)CN1C(=O)N(CC(=O)Nc2ccc3ccn(CC(=O)O)c3c2)N=C(C2CCCCC2)c2ccccc21	9.53		6.26	pKi [4]: 8.62
CC(C)(C)C(=O)CN1C(=O)N(CC(=O)Nc2ccc3c(ccn3CC(=O)O)c2)N=C(C2CCCCC2)c2ccccc21	9.11		5.60	
CC(C)(C)C(=O)CN1C(=O)N(CC(=O)Nc2cccc(Cc3nnn[nH]3)c2)N=C(C2CCCCC2)c2ccccc21	8.33		< 5.00	
CC(C)(C)C(=O)CN1C(=O)N(CC(=O)Nc2cccc(-c3ccc(C(=O)O)o3)c2)N=C(C2CCCCC2)c2ccccc21	9.61		6.34	
O=C(CN1N=C(C2CCCCC2)c2ccccc2N(CC(=O)C2CCCC2)C1=O)Nc1cccc(C(=O)O)c1	9.00	< 5.00		pKi [4]: 8.15; Kb [7]: 1.95 nM
CC(C)(C)C(=O)CN1C(=O)N(CC(=O)Nc2cccc(SCC(=O)O)c2)N=C(C2CCCCC2)c2ccccc21	9.19	6.19		pKi [4]: 8.24; Kb [7]: 2.75 nM
CC(C)(C)C(=O)CN1C(=O)N(CC(=O)Nc2ccc3cnn(CC(=O)O)c3c2)N=C(C2CCCCC2)c2ccccc21	9.08		5.67	
CC(C)(C)C(=O)CN1C(=O)N(CC(=O)Nc2cccc(C(=O)O)c2)N=C(C2CCCCCC2)c2ccccc21	8.32	5.24		
CC(C)(C)C(=O)CN1C(=O)N(CC(=O)Nc2cccc(S(=O)(=O)CC(=O)O)c2)N=C(C2CCCCC2)c2ccccc21	8.37	< 5.00		
CC(C)(C)C(=O)CN1C(=O)N(CC(=O)Nc2cccc(-c3cccc(C(=O)O)c3)c2)N=C(C2CCCCC2)c2ccccc21	8.80		6.26	
CN(CC(=O)O)c1cccc(NC(=O)CN2N=C(C3CCCCC3)c3ccccc3N(CC(=O)C(C)(C)C)C2=O)c1	8.97		5.19	
CC(C)(C)C(=O)CN1C(=O)N(CC(=O)Nc2cccc(-c3nn[nH]n3)c2)N=C(C2CCCCC2)c2ccccc21	9.00		5.76	pKi [4]: 8.50; Kb [7]: 7.76 nM
CC(C)(C)C(=O)CN1C(=O)N(CC(=O)Nc2cccc(C(=O)NS(C)(=O)=O)c2)N=C(C2CCCCC2)c2ccccc21	8.41	5.53		
CC(C)(C)C(=O)CN1C(=O)N(CC(=O)Nc2cccc(-c3cn(CC(=O)O)cn3)c2)N=C(C2CCCCC2)c2ccccc21	8.39		5.77	
